According to patent US20020077350A1 (Ashni Naturaceuticals, Inc., priority 2000, published 2002):
Entries after “also recorded” stand apart in the source; their conditions may differ.

Assays:
COX-2 = assay type: cell-based, human; details: Jurkat cells, with and without arachidonic acid or arachidonic acid not specified
[1] = gastrointestinal disturbance, nausea and vomiting, hypotension, edema; cited from earlier work

In the case of `C=C1CC[C@@H]2[C@](C)(CO)[C@H](O)CC[C@@]2(C)[C@@H]1C/C=C1/C(=O)OC[C@H]1O` [Andrographolide], the “inhibition of COX-2 enzyme protein expression” value (shortened to “inhibition”) (COX-2) is reported as “does not inhibit; also recorded: little effect”.

In the case of `CC1(C)CC[C@]2(C(=O)O)CC[C@]3(C)C(=CC[C@@H]4[C@@]5(C)CC[C@H](O)C(C)(C)[C@@H]5CC[C@]43C)[C@@H]2C1` [Oleanolic acid], the “inhibition” value (COX-2) is reported as “does not inhibit”.

For `CC(C)[C@]12O[C@H]1[C@@H]1O[C@]13[C@]1(O[C@H]1C[C@H]1C4=C(CC[C@@]13C)C(=O)OC4)[C@@H]2O` [Triptolide], the “patients showing some type of side effects” value [1] is listed as “Approximately 28%”.

In the case of `C[C@H]1[C@H](C)CC[C@]2(C(=O)O)CC[C@]3(C)C(=CC[C@@H]4[C@@]5(C)CC[C@H](O)C(C)(C)[C@@H]5CC[C@]43C)[C@H]12` [Ursolic acid], the “inhibition” value (COX-2) is reported as “does not inhibit”.
